Data set [1] relates to Clostridioides difficile. The data set can be described thus: Antibacterial activity against Clostridium difficile ATTC43255 assessed as spore germination inhibition at 45 uM incubated for 60 mins by spectrometry relative to control. The format is functional. Conditions: ATTC43255, 1 h.
Data set [2] relates to Clostridioides difficile. The data set is described as follows: Antibacterial activity against Clostridium difficile ATTC43255 incubated for 24 to 48 hrs anaerobically by colony counting method. The format is functional. Conditions: time 24-48 hrs.
For data set [3], the system named is Clostridioides difficile. The data set is described as follows: Antibacterial activity against Clostridium difficile ATTC43255 assessed as spore germination inhibition incubated for 60 mins by spectrometry. The format is functional, organism-based. The note with it: ATTC43255, 1 h.
Data set [4] in a line: Cytotoxicity against human HepG2 cells incubated for 24 hrs by XTT assay. The class given is toxicity, cell-based. Conditions: read-out: LD50.
Data set [5] in a line: Selectivity index, ratio of LD50 for cytotoxicity against human HepG2 cells to IC50 for antibacterial activity against Clostridium difficile ATTC43255 assessed as spore germination inhibition. The format is toxicity, cell-based. The note with it: read-out: Ratio LD50/IC50.

For the compound `Cl.NCc1ccc(-c2nc(-c3ccc(Oc4ccc(F)cc4)cc3)no2)cc1`, the inhibition (commonly the change of the read-out against control, counted positive when it falls) at 45 µM in the data set with Clostridioides difficile [1] worked out at 60%. Further, the MIC – broadly, the lowest concentration found to suppress growth – against Clostridioides difficile [2] turned out to be 16 µg/mL. Also, the IC50 – broadly, the concentration needed to halve the response being measured – with Clostridioides difficile [3] turned out to be 45 µM. Besides, in data set [4], the CC50 at 24 h worked out at 38 µg/mL. Further, the selectivity ratio in data set [5] stood at 2.
In the case of `Cl.NCc1ccc(-c2nc(-c3ccc(I)cc3)no2)cc1`, the inhibition at 45 µM in the data set on Clostridioides difficile [1] came out at 51%. In the data set on Clostridioides difficile [2], this compound displayed an MIC of 8 µg/mL. In addition, in the data set on Clostridioides difficile [3], the 50% inhibitory concentration (IC50) was determined as 37 µM. In addition, the CC50 at 24 h in data set [4] came out at 39 µg/mL. Further, the selectivity ratio in data set [5] stood at 3.
On to `FC(F)(F)c1ccc(Oc2ccc(-c3noc(-c4c[nH]c5ncccc45)n3)cc2)cc1`, for which, in the data set with Clostridioides difficile [1], the inhibition at 45 µM is less than 10%.
For the compound `NCc1ccc(-c2nc(-c3ccc(OC4CC4)cc3)no2)cc1`, the inhibition at 45 µM in the data set with Clostridioides difficile [1] turned out to be 12%.
The same measure, in the same setting: under `CC(C)(C)Oc1ccc(-c2noc(-c3ccc(O)cc3)n2)cc1` stands less than 10%; under `CCCCOc1ccc(-c2noc(-c3ccc(CN)cc3)n2)cc1`, 32%.
For `NCCCOc1ccc(-c2noc(-c3ccc(O)cc3)n2)cc1`, the inhibition at 45 µM with Clostridioides difficile [1] was less than 10%.
The same measure, in the same setting: under `Nc1ccc(-c2noc(-c3ccc(O)cc3)n2)cc1` stands less than 10%; under `N#Cc1ccc(Oc2ccc(-c3noc(-c4ccc(O)cc4)n3)cc2)cc1`, less than 10%; under `O=C(Nc1c[nH]nc1-c1nc(-c2ccc(Oc3ccc(C(F)(F)F)cc3)cc2)no1)c1ccccc1`, less than 10%.
Same read-out and setting: under `Nc1cncc(-c2nc(-c3ccc(Oc4ccc(C(F)(F)F)cc4)cc3)no2)c1` stands less than 10%.
`CCCCOc1ccc(-c2noc(-c3ccc(O)cc3)n2)cc1`: in the data set on Clostridioides difficile [1], the inhibition at 45 µM is less than 10%.
With `NCc1ccc(-c2nc(-c3ccnc(N4CCCC4)c3)no2)cc1`, in the data set on Clostridioides difficile [1], the inhibition at 45 µM was found to be 13%.
As to `COc1ccc(-c2noc(-c3ccc(O)cc3)n2)cc1OC`, the inhibition at 45 µM in the data set with Clostridioides difficile [1] was less than 10%.
On the same count and under the same terms, under `Oc1ccc(-c2nc(-c3ccc(O[C@@H]4CCNC4)cc3)no2)cc1` stands less than 10%.
`NCc1ccc(-c2nc(-c3ccc(Oc4ccc(C(F)(F)F)cc4)cc3)no2)cc1`: in the data set on Clostridioides difficile [1], the inhibition at 45 µM amounted to 41%.
Still for that read-out and setting: with `CN1CCN(c2ccc(-c3noc(-c4ccc(O)cc4)n3)cc2)CC1` the figure was less than 10%; with `O=[N+]([O-])c1ccc(-c2nc(-c3ccc(OC4CCCC4)cc3)no2)cc1`, less than 10%; with `C[C@@H](N)c1nc(-c2ccc(OC3CCCC3)cc2)no1`, less than 10%.
On the same count and under the same terms, with `FC(F)(F)c1ccc(Oc2ccc(-c3noc(-c4n[nH]cc4Cl)n3)cc2)cc1` the figure was less than 10%.
The same measure, in the same setting: with `O=[N+]([O-])c1ccccc1Oc1ccc(-c2noc(-c3ccc(O)cc3)n2)cc1` the figure was 21%; with `CC(C)Oc1ncc(-c2nc(-c3cccc4c3CCC4NCCC(=O)O)no2)cc1C#N` (configuration not stated), less than 10%.
`FC(F)(F)c1ccc(Oc2ccc(-c3noc(-c4n[nH]cc4I)n3)cc2)cc1`: in the data set with Clostridioides difficile [1], the inhibition at 45 µM was less than 10%.
With `N[C@H]1CC[C@H](Oc2ccc(-c3noc(-c4ccc(O)cc4)n3)cc2)CC1`, the inhibition at 45 µM in the data set with Clostridioides difficile [1] is less than 10%.
Take `CS(=O)(=O)Nc1ccc(-c2nc(-c3ccc(OC4CCCC4)cc3)no2)cc1`: the inhibition at 45 µM with Clostridioides difficile [1] is less than 10%.
Regarding `FC(F)(F)c1ccc(Oc2ccc(-c3noc(-c4cc5ccccc5[nH]4)n3)cc2)cc1`, the inhibition at 45 µM with Clostridioides difficile [1] is less than 10%.
Same read-out and setting: under `N#Cc1ccc(-c2nc(-c3ccc(Oc4ccc(F)cc4)cc3)no2)cc1` stands less than 10%; under `Nc1c[nH]nc1-c1nc(-c2ccc(Oc3ccc(C(F)(F)F)cc3)cc2)no1`, less than 10%.
`CC(C)Oc1ccc(-c2nc(-c3cccc4c3CC[C@@H]4NCCO)no2)cc1C#N.Cl` [OZANIMOD HYDROCHLORIDE]: the inhibition at 45 µM in the data set with Clostridioides difficile [1] worked out at 62%. Also, in the data set on Clostridioides difficile [2], the lowest concentration to inhibit growth (MIC) was 64 µg/mL. The IC50 in the data set on Clostridioides difficile [3] stood at 39 µM. Further, the CC50 at 24 h in data set [4] came to 46 µg/mL. Also, the selectivity ratio in data set [5] worked out at 3.
As to `CCCOc1ccc(-c2noc(-c3ccc(O)cc3)n2)cc1`, the inhibition at 45 µM with Clostridioides difficile [1] was less than 10%.
